# Assay results as given in patent publication US20020137929A1, “1 - (3-heterocyclylphenyl) isothiourea, -isourea, -guanidine and -amidine herbicidal agents” (Intellectual Property Department, BASF Aktiengesellschaft, priority 1998, published 2002).
# How the values were obtained:
# ABUTH (Velvetleaf) = test: Preemergence herbicidal evaluation; format: in vivo, Abutilon theophrasti; settings: rated 4-5 weeks after treatment
# Outline: (§1)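 Test compound, dissolved in aqueous acetone, was sprayed over planted soil cups at an equivalent of about 0.0156 to 0.500 kg/ha; seeds had been mixed with potting soil. Greenhouse growth followed, with visual 0-9 scoring of injury at four to five weeks.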
# ECHCG (Barnyardgrass) = test: Preemergence herbicidal evaluation; format: in vivo, Echinochloa crus-galli; settings: rated 4-5 weeks after treatment
# Outline: as §1
# [1] = test system: IPOHE (Morningglory, Ivyleaf); test: Preemergence herbicidal evaluation; format: in vivo, Ipomoea hederacea; settings: rated 4-5 weeks after treatment
# Outline: as §1
# CASOB (Sicklepod) [2] = test: Preemergence herbicidal evaluation; format: in vivo, Cassia obtusifolia; settings: rated 4-5 weeks after treatment
# Outline: as §1
# [3] = test system: SAGPY (Arrowhead (Pygmaea)); test: Preemergence weed control under flooded paddy conditions; format: in vivo, Sagittaria pygmaea; settings: rated 3-4 weeks after treatment
# Outline: (§2)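 Flooded-pot preemergence screen with silt loam and seeds in the upper 0.5 cm. Dose about 0.0313 to 0.500 kg/ha, delivered into flood water; visual 0-9 score after 3 to 4 weeks.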
# [4] = test system: TRZAWR (Wheat, Winter, cv Riband); test: Preemergence herbicidal evaluation; format: in vivo, Triticum aestivum; settings: rated 4-5 weeks after treatment
# Outline: as §1
# MOOVA (Monochoria) = test: Preemergence weed control under flooded paddy conditions; format: in vivo, Monochoria vaginalis; settings: rated 3-4 weeks after treatment
# Outline: as §2
# CASOB (Sicklepod) [5] = test: Postemergence herbicidal evaluation; format: in vivo, Cassia obtusifolia; settings: for herbicidal rating CASOB: postemergence
# Outline: (§3)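 Herbicidal effect was judged by eye on a 0–9 scale covering stand, vigor, deformity, size and chlorosis, compared with controls, four to five weeks after seedlings about two weeks old were sprayed (40 psi, ~0.0156–0.500 kg/ha).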
# [6] = test system: IPOHE (Morningglory, Ivyleaf); test: Postemergence herbicidal evaluation; format: in vivo, Ipomoea hederacea; settings: for herbicidal rating IPOHE: postemergence
# Outline: as §3
# GALAP (Galium) = test: Postemergence herbicidal evaluation; format: in vivo, Galium aparine; settings: for herbicidal rating GALAP: postemergence
# Outline: as §3
# [7] = test system: GLXMAW (Soybean, Williams); test: Preemergence herbicidal evaluation; format: in vivo, Glycine max, (L.) Merr. cv Williams; settings: rated 4-5 weeks after treatment
# Outline: as §1
# AMBEL (Ragweed, Common) = test: Postemergence herbicidal evaluation; format: in vivo, Ambrosia artemisifolia; settings: for herbicidal rating AMBEL: postemergence
# Outline: as §3
# ZEAMX (Corn, Field) = test: Preemergence herbicidal evaluation; format: in vivo, Zea mays; settings: rated 4-5 weeks after treatment
# Outline: as §1
smiles,measurement,setting,value
"CCOC(=O)CN1C(=O)C(SC)SC1=Nc1cc(-n2c(=O)cc(C(F)(F)F)n(C)c2=O)c(F)cc1Cl (stereo not drawn) [Compound 125, Ethyl 2-{{2-chloro-5-[3,6-dihydro-3-methyl-2,6-dioxo-4-(trifluoromethyl)-1(2H)-pyrimidinyl]-4-fluorophenyl}imino}-5-(methylthio)-4-oxo-3-thiazolidineacetate]",Preemergence herbicidal rating ABUTH,ABUTH (Velvetleaf); rate 0.0156 kg/ha,0.0
same,Preemergence herbicidal rating ABUTH,ABUTH (Velvetleaf); rate 0.0313 kg/ha,2.0
same,Preemergence herbicidal rating ABUTH,ABUTH (Velvetleaf); rate 0.0625 kg/ha,4.0
same,Preemergence herbicidal rating ABUTH,ABUTH (Velvetleaf); rate 0.1250 kg/ha,6.0
same,Preemergence herbicidal rating ABUTH,ABUTH (Velvetleaf); rate 0.2500 kg/ha,9.0
same,Preemergence herbicidal rating ABUTH,ABUTH (Velvetleaf); rate 0.5000 kg/ha,9.0
same,Preemergence herbicidal rating ECHCG,ECHCG (Barnyardgrass); rate 0.0156 kg/ha,0.0
same,Preemergence herbicidal rating ECHCG,ECHCG (Barnyardgrass); rate 0.0313 kg/ha,0.0
same,Preemergence herbicidal rating ECHCG,ECHCG (Barnyardgrass); rate 0.0625 kg/ha,0.0
same,Preemergence herbicidal rating ECHCG,ECHCG (Barnyardgrass); rate 0.1250 kg/ha,3.0
same,Preemergence herbicidal rating ECHCG,ECHCG (Barnyardgrass); rate 0.2500 kg/ha,7.0
same,Preemergence herbicidal rating ECHCG,ECHCG (Barnyardgrass); rate 0.5000 kg/ha,9.0
same,Preemergence herbicidal rating IPOHE,[1]; rate 0.0156 kg/ha,0.0
same,Preemergence herbicidal rating IPOHE,[1]; rate 0.0313 kg/ha,0.0
same,Preemergence herbicidal rating IPOHE,[1]; rate 0.0625 kg/ha,4.0
same,Preemergence herbicidal rating IPOHE,[1]; rate 0.1250 kg/ha,4.0
same,Preemergence herbicidal rating IPOHE,[1]; rate 0.2500 kg/ha,9.0
same,Preemergence herbicidal rating IPOHE,[1]; rate 0.5000 kg/ha,9.0
same,Preemergence herbicidal rating CASOB,CASOB (Sicklepod) [2]; rate 0.0156 kg/ha,0.0
same,Preemergence herbicidal rating CASOB,CASOB (Sicklepod) [2]; rate 0.0313 kg/ha,1.0
same,Preemergence herbicidal rating CASOB,CASOB (Sicklepod) [2]; rate 0.0625 kg/ha,3.0
same,Preemergence herbicidal rating CASOB,CASOB (Sicklepod) [2]; rate 0.1250 kg/ha,2.0
same,Preemergence herbicidal rating CASOB,CASOB (Sicklepod) [2]; rate 0.2500 kg/ha,9.0
same,Preemergence herbicidal rating CASOB,CASOB (Sicklepod) [2]; rate 0.5000 kg/ha,9.0
same,"herbicidal effect rating, SAGPY",[3]; 0.0313 kg/ha,3.0
same,"herbicidal effect rating, SAGPY",[3]; 0.0625 kg/ha,4.0
same,"herbicidal effect rating, SAGPY",[3]; 0.1250 kg/ha,4.0
same,"herbicidal effect rating, SAGPY",[3]; 0.2500 kg/ha,9.0
same,Preemergence herbicidal rating TRZAWR,[4]; rate 0.0156 kg/ha,0.0
same,Preemergence herbicidal rating TRZAWR,[4]; rate 0.0313 kg/ha,0.0
same,Preemergence herbicidal rating TRZAWR,[4]; rate 0.0625 kg/ha,1.0
same,Preemergence herbicidal rating TRZAWR,[4]; rate 0.1250 kg/ha,1.0
same,Preemergence herbicidal rating TRZAWR,[4]; rate 0.2500 kg/ha,4.0
same,Preemergence herbicidal rating TRZAWR,[4]; rate 0.5000 kg/ha,5.0
same,"herbicidal effect rating, MOOVA",MOOVA (Monochoria); 0.0313 kg/ha,5.0
same,"herbicidal effect rating, MOOVA",MOOVA (Monochoria); 0.0625 kg/ha,7.0
same,"herbicidal effect rating, MOOVA",MOOVA (Monochoria); 0.1250 kg/ha,7.0
same,"herbicidal effect rating, MOOVA",MOOVA (Monochoria); 0.2500 kg/ha,9.0
same,herbicidal rating CASOB,CASOB (Sicklepod) [5]; rate 0.0156 kg/ha,1.0
same,herbicidal rating CASOB,CASOB (Sicklepod) [5]; rate 0.0313 kg/ha,2.0
same,herbicidal rating CASOB,CASOB (Sicklepod) [5]; rate 0.0625 kg/ha,2.0
same,herbicidal rating IPOHE,[6]; rate 0.0156 kg/ha,9.0
same,herbicidal rating IPOHE,[6]; rate 0.0313 kg/ha,9.0
same,herbicidal rating IPOHE,[6]; rate 0.0625 kg/ha,9.0
same,herbicidal rating GALAP,GALAP (Galium); rate 0.0156 kg/ha,1.0
same,herbicidal rating GALAP,GALAP (Galium); rate 0.0313 kg/ha,2.0
same,herbicidal rating GALAP,GALAP (Galium); rate 0.0625 kg/ha,5.0
same,Preemergence herbicidal rating GLXMAW,[7]; rate 0.0156 kg/ha,0.0
same,Preemergence herbicidal rating GLXMAW,[7]; rate 0.0313 kg/ha,0.0
same,Preemergence herbicidal rating GLXMAW,[7]; rate 0.0625 kg/ha,0.0
same,Preemergence herbicidal rating GLXMAW,[7]; rate 0.1250 kg/ha,3.0
same,Preemergence herbicidal rating GLXMAW,[7]; rate 0.2500 kg/ha,4.0
same,Preemergence herbicidal rating GLXMAW,[7]; rate 0.5000 kg/ha,7.0
same,herbicidal rating AMBEL,"AMBEL (Ragweed, Common); rate 0.0156 kg/ha",3.0
same,herbicidal rating AMBEL,"AMBEL (Ragweed, Common); rate 0.0313 kg/ha",8.0
same,herbicidal rating AMBEL,"AMBEL (Ragweed, Common); rate 0.0625 kg/ha",8.0
same,Preemergence herbicidal rating ZEAMX,"ZEAMX (Corn, Field); rate 0.0156 kg/ha",0.0
same,Preemergence herbicidal rating ZEAMX,"ZEAMX (Corn, Field); rate 0.0313 kg/ha",0.0
same,Preemergence herbicidal rating ZEAMX,"ZEAMX (Corn, Field); rate 0.0625 kg/ha",3.0
same,Preemergence herbicidal rating ZEAMX,"ZEAMX (Corn, Field); rate 0.1250 kg/ha",6.0
same,Preemergence herbicidal rating ZEAMX,"ZEAMX (Corn, Field); rate 0.2500 kg/ha",7.0
same,Preemergence herbicidal rating ZEAMX,"ZEAMX (Corn, Field); rate 0.5000 kg/ha",7.0
"CCCN1C(=O)CSC1=Nc1cc(-n2c(=O)cc(C(F)(F)F)n(C)c2=O)c(F)cc1Cl [Compound 171, 3-{4-Chloro-2-fluoro-5-[(4-oxo-3-propyl-2-thiazolidinylidene)amino]phenyl}-1-methyl-6-(trifluoromethyl)-2,4 (1H, 3H)-pyrimidinedione]",Preemergence herbicidal rating ABUTH,ABUTH (Velvetleaf); 0.0156 kg/ha,9.0
same,Preemergence herbicidal rating ABUTH,ABUTH (Velvetleaf); 0.0313 kg/ha,9.0
same,Preemergence herbicidal rating ABUTH,ABUTH (Velvetleaf); 0.0625 kg/ha,9.0
same,Preemergence herbicidal rating ABUTH,ABUTH (Velvetleaf); 0.1250 kg/ha,9.0
same,Preemergence herbicidal rating ABUTH,ABUTH (Velvetleaf); 0.2500 kg/ha,9.0
same,Preemergence herbicidal rating ECHCG,ECHCG (Barnyardgrass); 0.0156 kg/ha,0.0
same,Preemergence herbicidal rating ECHCG,ECHCG (Barnyardgrass); 0.0313 kg/ha,4.0
same,Preemergence herbicidal rating ECHCG,ECHCG (Barnyardgrass); 0.0625 kg/ha,8.0
same,Preemergence herbicidal rating ECHCG,ECHCG (Barnyardgrass); 0.1250 kg/ha,9.0
same,Preemergence herbicidal rating ECHCG,ECHCG (Barnyardgrass); 0.2500 kg/ha,9.0
same,Preemergence herbicidal rating IPOHE,[1]; 0.0156 kg/ha,2.0
same,Preemergence herbicidal rating IPOHE,[1]; 0.0313 kg/ha,3.0
same,Preemergence herbicidal rating IPOHE,[1]; 0.0625 kg/ha,9.0
same,Preemergence herbicidal rating IPOHE,[1]; 0.1250 kg/ha,9.0
same,Preemergence herbicidal rating IPOHE,[1]; 0.2500 kg/ha,9.0
same,Preemergence herbicidal rating CASOB,CASOB (Sicklepod) [2]; 0.0156 kg/ha,4.0
same,Preemergence herbicidal rating CASOB,CASOB (Sicklepod) [2]; 0.0313 kg/ha,5.0
same,Preemergence herbicidal rating CASOB,CASOB (Sicklepod) [2]; 0.0625 kg/ha,2.0
same,Preemergence herbicidal rating CASOB,CASOB (Sicklepod) [2]; 0.1250 kg/ha,4.0
same,Preemergence herbicidal rating CASOB,CASOB (Sicklepod) [2]; 0.2500 kg/ha,9.0
same,"herbicidal effect rating, SAGPY",[3]; 0.0313 kg/ha,6.0
same,"herbicidal effect rating, SAGPY",[3]; 0.0625 kg/ha,7.0
same,"herbicidal effect rating, SAGPY",[3]; 0.1250 kg/ha,8.0
same,"herbicidal effect rating, SAGPY",[3]; 0.2500 kg/ha,9.0
same,Preemergence herbicidal rating TRZAWR,[4]; 0.0156 kg/ha,2.0
same,Preemergence herbicidal rating TRZAWR,[4]; 0.0313 kg/ha,3.0
same,Preemergence herbicidal rating TRZAWR,[4]; 0.0625 kg/ha,6.0
same,Preemergence herbicidal rating TRZAWR,[4]; 0.1250 kg/ha,6.0
same,Preemergence herbicidal rating TRZAWR,[4]; 0.2500 kg/ha,8.0
same,"herbicidal effect rating, MOOVA",MOOVA (Monochoria); 0.0313 kg/ha,9.0
same,"herbicidal effect rating, MOOVA",MOOVA (Monochoria); 0.0625 kg/ha,9.0
same,"herbicidal effect rating, MOOVA",MOOVA (Monochoria); 0.1250 kg/ha,9.0
same,"herbicidal effect rating, MOOVA",MOOVA (Monochoria); 0.2500 kg/ha,9.0
same,Postemergence herbicidal rating CASOB,CASOB (Sicklepod) [5]; Rate 0.0156 kg/ha,2.0
same,Postemergence herbicidal rating CASOB,CASOB (Sicklepod) [5]; Rate 0.0313 kg/ha,3.0
same,herbicidal rating CASOB,CASOB (Sicklepod) [5]; rate 0.0625 kg/ha,4.0
same,Postemergence herbicidal rating IPOHE,[6]; Rate 0.0156 kg/ha,9.0
same,Postemergence herbicidal rating IPOHE,[6]; Rate 0.0313 kg/ha,9.0
same,herbicidal rating IPOHE,[6]; rate 0.0625 kg/ha,9.0
same,Postemergence herbicidal rating GALAP,GALAP (Galium); Rate 0.0156 kg/ha,3.0
same,Postemergence herbicidal rating GALAP,GALAP (Galium); Rate 0.0313 kg/ha,6.0
same,herbicidal rating GALAP,GALAP (Galium); rate 0.0625 kg/ha,7.0
same,Preemergence herbicidal rating GLXMAW,[7]; 0.0156 kg/ha,1.0
same,Preemergence herbicidal rating GLXMAW,[7]; 0.0313 kg/ha,2.0
same,Preemergence herbicidal rating GLXMAW,[7]; 0.0625 kg/ha,6.0
same,Preemergence herbicidal rating GLXMAW,[7]; 0.1250 kg/ha,7.0
same,Preemergence herbicidal rating GLXMAW,[7]; 0.2500 kg/ha,8.0
same,Postemergence herbicidal rating AMBEL,"AMBEL (Ragweed, Common); Rate 0.0156 kg/ha",6.0
same,Postemergence herbicidal rating AMBEL,"AMBEL (Ragweed, Common); Rate 0.0313 kg/ha",9.0
same,herbicidal rating AMBEL,"AMBEL (Ragweed, Common); rate 0.0625 kg/ha",9.0
same,Preemergence herbicidal rating ZEAMX,"ZEAMX (Corn, Field); 0.0156 kg/ha",2.0
same,Preemergence herbicidal rating ZEAMX,"ZEAMX (Corn, Field); 0.0313 kg/ha",6.0
same,Preemergence herbicidal rating ZEAMX,"ZEAMX (Corn, Field); 0.0625 kg/ha",8.0
same,Preemergence herbicidal rating ZEAMX,"ZEAMX (Corn, Field); 0.1250 kg/ha",8.0
same,Preemergence herbicidal rating ZEAMX,"ZEAMX (Corn, Field); 0.2500 kg/ha",9.0
